Source: ChEMBL document CHEMBL1149662, “Design and synthesis of a library of tertiary amides: evaluation as mimetics of the melanocortins' active core” (Bioorg Med Chem, 2007)
The source made the active and inactive calls. The rule behind the calls is not given here.

Columns and labels:
[1] = target: T1, Melanocyte-stimulating hormone receptor (Mus musculus, UniProt Q01727); assay: Displacement of [125I]NDP-MSH from MC1 receptor in mouse B16 cells; format: cell-based
[2] = target: T2, Melanocortin receptor 3 (Homo sapiens, UniProt P41968); assay: Displacement of [125I]NDP-MSH from human recombinant MC3 receptor expressed in Sf9 cells
T2 sequence (P41968 whole entry): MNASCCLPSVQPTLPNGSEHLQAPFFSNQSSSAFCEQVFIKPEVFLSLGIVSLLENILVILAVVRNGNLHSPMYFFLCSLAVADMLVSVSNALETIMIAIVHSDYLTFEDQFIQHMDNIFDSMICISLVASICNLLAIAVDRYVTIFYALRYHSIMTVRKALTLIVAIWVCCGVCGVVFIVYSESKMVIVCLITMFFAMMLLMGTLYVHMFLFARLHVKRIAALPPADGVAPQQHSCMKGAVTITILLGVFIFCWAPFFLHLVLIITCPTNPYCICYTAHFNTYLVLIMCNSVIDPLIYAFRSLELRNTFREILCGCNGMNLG

[3] = target: T3, Melanocortin receptor 4 (Homo sapiens, UniProt P32245); assay: Displacement of [125I]NDP-MSH from human recombinant MC4 receptor expressed in Sf9 cells
T3 sequence (P32245 whole entry): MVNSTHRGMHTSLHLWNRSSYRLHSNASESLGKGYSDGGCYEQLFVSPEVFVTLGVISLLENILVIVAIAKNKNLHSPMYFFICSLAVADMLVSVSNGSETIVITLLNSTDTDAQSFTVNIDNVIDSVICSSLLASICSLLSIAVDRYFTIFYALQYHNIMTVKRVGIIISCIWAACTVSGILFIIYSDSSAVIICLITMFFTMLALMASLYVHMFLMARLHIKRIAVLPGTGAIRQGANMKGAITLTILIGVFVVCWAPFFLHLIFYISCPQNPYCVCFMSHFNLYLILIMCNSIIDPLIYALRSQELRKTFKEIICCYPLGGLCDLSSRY

[4] = target: T4, Melanocortin receptor 5 (Homo sapiens, UniProt P33032); assay: Displacement of [125I]NDP-MSH from human recombinant MC5 receptor expressed in Sf9 cells
T4 sequence (P33032 whole entry): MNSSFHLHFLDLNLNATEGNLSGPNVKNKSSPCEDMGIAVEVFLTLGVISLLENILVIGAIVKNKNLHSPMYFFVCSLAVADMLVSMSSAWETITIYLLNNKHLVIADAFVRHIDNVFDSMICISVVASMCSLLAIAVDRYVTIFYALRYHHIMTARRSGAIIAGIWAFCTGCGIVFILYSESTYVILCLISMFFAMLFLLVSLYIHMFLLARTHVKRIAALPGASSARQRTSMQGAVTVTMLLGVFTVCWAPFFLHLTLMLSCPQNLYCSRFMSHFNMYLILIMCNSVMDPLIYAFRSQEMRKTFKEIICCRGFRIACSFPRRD

[5] = Selectivity for mouse MC1 receptor over human MC3 receptor
[6] = Selectivity for mouse MC1 receptor over human MC4 receptor
[7] = Selectivity for mouse MC1 receptor over human MC5 receptor
[8] = target: T4, Melanocortin receptor 5; assay: Displacement of [125I]NDP-MSH from human recombinant MC5 receptor expressed in Sf9 cells up to 1 mM
[9] = target: Melanocyte-stimulating hormone receptor (Mus musculus) (UniProt Q01727); assay: Antagonist activity MC1 receptor in mouse B16 cells assessed as inhibition of alpha-MSH-induced cAMP accumulation at 100 uM; format: functional, cell-based
Melanocyte-stimulating hormone receptor (Mus musculus), sequence (Q01727 whole entry, looked up): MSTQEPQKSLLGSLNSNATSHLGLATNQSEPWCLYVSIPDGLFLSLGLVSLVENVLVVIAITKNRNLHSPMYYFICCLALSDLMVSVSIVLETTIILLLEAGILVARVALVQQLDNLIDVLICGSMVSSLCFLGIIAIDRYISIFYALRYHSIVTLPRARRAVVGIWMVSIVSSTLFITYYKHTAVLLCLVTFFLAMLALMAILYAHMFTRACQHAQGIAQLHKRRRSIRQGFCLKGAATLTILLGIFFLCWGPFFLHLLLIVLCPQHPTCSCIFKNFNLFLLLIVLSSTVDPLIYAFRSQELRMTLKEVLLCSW

[10] = target: T2, Melanocortin receptor 3; assay: Antagonist activity at MC3 receptor expressed in COS1 cells assessed as inhibition of alpha-MSH-induced cAMP accumulation at 100 uM; format: functional, cell-based; conditions: COS-1
[11] = target: T3, Melanocortin receptor 4; assay: Antagonist activity at MC4 receptor expressed in COS1 cells assessed as inhibition of alpha-MSH-induced cAMP accumulation at 100 uM; format: functional, cell-based; conditions: COS-1
[12] = target: T4, Melanocortin receptor 5; assay: Antagonist activity at MC5 receptor expressed in COS1 cells assessed as inhibition of alpha-MSH-induced cAMP accumulation at 100 uM; format: functional, cell-based; conditions: COS-1
[13] = target: T1, Melanocyte-stimulating hormone receptor; assay: Displacement of [125I]NDP-MSH from MC1 receptor in mouse B16 cells up to 1 mM; format: cell-based
[14] = target: T2, Melanocortin receptor 3; assay: Displacement of [125I]NDP-MSH from human recombinant MC3 receptor expressed in Sf9 cells up to 1 mM
[15] = target: T3, Melanocortin receptor 4; assay: Displacement of [125I]NDP-MSH from human recombinant MC4 receptor expressed in Sf9 cells up to 1 mM

T1 sequence (Q01727 whole entry): as the sequence (Q01727 whole entry, looked up) above

Row | SMILES | Ki [1] | Ki [2] | Ki [3] | Ki [4] | other results
1 | NCCCN(C(=O)Cc1c[nH]c2ccccc12)C1CCc2ccccc2C1 (stereo unspecified) | 2.4 µM | 37 µM | 33 µM | 25 µM | Ratio [5]: 10; Ratio [6]: 10; Ratio [7]: 10
2 | NCCCN(C/C=C/c1ccccc1)C(=O)Cc1c[nH]c2ccccc12 | 6.4 µM | 21 µM | 26 µM |  | Ki [8]: Not Active
3 | N=C(N)NCCCN(Cc1ccc2ccccc2c1)C(=O)CCc1c[nH]c2ccccc12 | 12 µM | 53 µM | 16 µM | 13 µM | Activity [9]: Active; Activity [10]: Active; Activity [11]: Active; Activity [12]: Active
4 | NCCCN(Cc1ccc2ccccc2c1)C(=O)Cc1c[nH]c2ccccc12 | 20 µM | 63 µM | 161 µM | 12 µM | Activity [9]: Active; Activity [10]: Active; Activity [11]: Active; Activity [12]: Active
5 | NCCN(Cc1ccc2ccccc2c1)C(=O)Cc1c[nH]c2ccccc12 | 36 µM | 68 µM | 140 µM | 18 µM | Activity [9]: Active; Activity [10]: Active; Activity [11]: Active; Activity [12]: Active
6 | N=C(N)NCCCCN(Cc1ccc2ccccc2c1)C(=O)CCc1c[nH]c2ccccc12 |  |  |  |  | Activity [9]: Active; Activity [10]: Active; Activity [11]: Active; Activity [12]: Active
7 | NCCCCN(Cc1ccc2ccccc2c1)C(=O)Cc1c[nH]c2ccccc12 | 15 µM | 63 µM | 111 µM | 16 µM | Activity [9]: Active; Activity [10]: Active; Activity [11]: Active; Activity [12]: Active
8 | NCc1cccc(CN(Cc2ccccc2)C(=O)CCCc2c[nH]c3ccccc23)c1 | 1.9 µM | 45 µM | 33 µM | 32 µM | Ratio [5]: 10; Ratio [6]: 10; Ratio [7]: 10
9 | NCCCCCN(Cc1ccc2ccccc2c1)C(=O)CCCc1c[nH]c2ccccc12 | 5.1 µM | 20 µM | 12 µM | 34 µM | Activity [9]: Active; Activity [10]: Active; Activity [11]: Active; Activity [12]: Active
10 | NCCCCCN(C/C=C/c1ccccc1)C(=O)CCc1c[nH]c2ccccc12 | 3.7 µM | 27 µM | 8.1 µM | 8 µM | Activity [9]: Active; Activity [10]: Active; Activity [11]: Active; Activity [12]: Active
11 | NCCN(C(=O)Cc1ccc2ccccc2c1)C1CCc2ccccc2C1 (stereo unspecified) | 1.6 µM | 29 µM | 27 µM | 25 µM | Ratio [5]: 10; Ratio [6]: 10; Ratio [7]: 10
12 | NCCCCCCCCN(C/C=C/c1ccccc1)C(=O)CCc1c[nH]c2ccccc12 | 1.2 µM | 24 µM | 17 µM | 40 µM | Ratio [5]: 10; Ratio [6]: 10; Ratio [7]: 10
13 | NCCCCCN(Cc1ccc2ccccc2c1)C(=O)Cc1c[nH]c2ccccc12 | 1.5 µM | 50 µM | 13 µM | 5.2 µM | 
14 | N[C@H]1CC[C@H](N(Cc2ccccc2)C(=O)CCCc2c[nH]c3ccccc23)CC1 | 4.3 µM | 50 µM | 8.4 µM | 40 µM | 
15 | NCCCCCN(Cc1ccccc1)C(=O)[C@H](N)Cc1ccccn1 |  |  |  |  | Ki [13]: Not Active; Ki [14]: Not Active; Ki [15]: Not Active; Ki [8]: Not Active
16 | NC1CCC(CC2CCC(N(Cc3c(F)cccc3F)C(=O)CCCc3c[nH]c4ccccc34)CC2)CC1 (stereo unspecified) | 1.8 µM | 52 µM | 3 µM | 83 µM | 
17 | NCCN(C(=O)Cc1c[nH]c2ccccc12)C1CCc2ccccc2C1 (stereo unspecified) | 4 µM | 16 µM | 42 µM | 29 µM | 
18 | NC1CCC(CC2CCC(N(Cc3ccccc3Cl)C(=O)CCCc3c[nH]c4ccccc34)CC2)CC1 (stereo unspecified) | 3.2 µM | 22 µM | 2.8 µM | 5.2 µM | 

Row | SMILES | Ki [1] | Ki [2] | Ki [3] | Ki [4] | other results
19 | N[C@H]1CC[C@H](C[C@H]2CC[C@H](N(C/C(Cl)=C/c3ccccc3)C(=O)CCCc3c[nH]c4ccccc34)CC2)CC1 | 3.1 µM | 45 µM | 6.8 µM | 8.4 µM | 
20 | NC1CCC(CC2CCC(N(CCc3c(F)cccc3Cl)C(=O)CCCc3c[nH]c4ccccc34)CC2)CC1 (stereo unspecified) | 2.1 µM | 24 µM | 2.3 µM | 5.2 µM | 
21 | NCCCCCN(C/C(Cl)=C\c1ccccc1)C(=O)/C=C/c1c[nH]c2ccccc12 | 2.7 µM | 27 µM | 59 µM | 5.4 µM | 
22 | NCCN(C/C=C/c1ccccc1)C(=O)CCc1c[nH]c2ccccc12 | 17 µM | 51 µM | 106 µM | 13 µM | 
23 | NCCN(C(=O)[C@H](N)Cc1ccc(Cl)cc1)C1CCC2(CCCCC2)CC1 | 3.7 µM | 1.7 µM | 2.4 µM | 3.2 µM | 
24 | COc1cc(Br)c(/C=C/CN(C(=O)CCCc2c[nH]c3ccccc23)C2CCC(CC3CCC(N)CC3)CC2)cc1OC (stereo unspecified) | 2 µM | 14 µM | 3.2 µM | 266 µM | 
25 | NCCCN(C(=O)c1c[nH]c2ccccc12)C1CCc2ccccc2C1 (stereo unspecified) | 4.8 µM | 131 µM | 74 µM | 23 µM | 
26 | Cc1ccc(CN(C(=O)CCCc2c[nH]c3ccccc23)C2CCC(CC3CCC(N)CC3)CC2)cc1 (stereo unspecified) | 1.3 µM | 220 µM | 2.1 µM | 10 µM | 
27 | C=C(Br)CN(C(=O)CCCc1c[nH]c2ccccc12)C1CCC(CC2CCC(N)CC2)CC1 (stereo in doubt; form 4) | 0.81 µM | 27 µM | 3.8 µM | 5.5 µM | 
28 | NCCCCCN(Cc1ccccc1)C(=O)[C@@H](N)Cc1c[nH]c2ccccc12 | 34 µM | 43 µM | 44 µM | 54 µM | 
29 | NC1CCC(CC2CCC(N(Cc3ccncc3)C(=O)CCCc3c[nH]c4ccccc34)CC2)CC1 (stereo in doubt; form 2) | 6.3 µM | 172 µM | 5.6 µM | 96 µM | 
30 | NCCCCCN(C/C=C\c1ccccc1)C(=O)CCCc1c[nH]c2ccccc12 | 3 µM | 36 µM | 16 µM | 2.2 µM | 
31 | NCCCCCN(CCCc1ccccc1)C(=O)Cc1c[nH]c2ccccc12 | 12 µM | 47 µM | 77 µM | 7.9 µM | 
32 | NCC1CCCC(CN(Cc2ccccc2)C(=O)CCCc2c[nH]c3ccccc23)C1 (stereo unspecified) | 2.7 µM | 24 µM | 3.6 µM | 8.7 µM | 
33 | CCOc1cc(CN(C(=O)CCCc2c[nH]c3ccccc23)C2CCC(CC3CCC(N)CC3)CC2)ccc1OC (stereo unspecified) | 2.9 µM | 16 µM | 2.1 µM | 9.5 µM | 
34 | CC(c1ccc(C(F)(F)F)cc1)N(CCCCCN)C(=O)Cc1c[nH]c2ccccc12 (stereo unspecified) | 2.6 µM | 12 µM | 16 µM | 11 µM | 
35 | CSc1ccc(CN(C(=O)CCCc2c[nH]c3ccccc23)C2CCC(CC3CCC(N)CC3)CC2)cc1 (stereo unspecified) | 3.2 µM | 249 µM | 4.3 µM | 85 µM | 
